Measured values published in patent US12581252B2, “Substituted pyrrolo[3,4-b]pyridines as PI3K-α inhibitors” (Relay Therapeutics, Inc., priority 2020, dated 2026).

Target: H1047R PIK3CA enzyme (Homo sapiens, UniProt P42336, H1047R)
Experiment: ADP-Glo Biochemical PIK3CA Kinase Assay

Chain of H1047R PIK3CA enzyme (P42336 whole entry H1047R): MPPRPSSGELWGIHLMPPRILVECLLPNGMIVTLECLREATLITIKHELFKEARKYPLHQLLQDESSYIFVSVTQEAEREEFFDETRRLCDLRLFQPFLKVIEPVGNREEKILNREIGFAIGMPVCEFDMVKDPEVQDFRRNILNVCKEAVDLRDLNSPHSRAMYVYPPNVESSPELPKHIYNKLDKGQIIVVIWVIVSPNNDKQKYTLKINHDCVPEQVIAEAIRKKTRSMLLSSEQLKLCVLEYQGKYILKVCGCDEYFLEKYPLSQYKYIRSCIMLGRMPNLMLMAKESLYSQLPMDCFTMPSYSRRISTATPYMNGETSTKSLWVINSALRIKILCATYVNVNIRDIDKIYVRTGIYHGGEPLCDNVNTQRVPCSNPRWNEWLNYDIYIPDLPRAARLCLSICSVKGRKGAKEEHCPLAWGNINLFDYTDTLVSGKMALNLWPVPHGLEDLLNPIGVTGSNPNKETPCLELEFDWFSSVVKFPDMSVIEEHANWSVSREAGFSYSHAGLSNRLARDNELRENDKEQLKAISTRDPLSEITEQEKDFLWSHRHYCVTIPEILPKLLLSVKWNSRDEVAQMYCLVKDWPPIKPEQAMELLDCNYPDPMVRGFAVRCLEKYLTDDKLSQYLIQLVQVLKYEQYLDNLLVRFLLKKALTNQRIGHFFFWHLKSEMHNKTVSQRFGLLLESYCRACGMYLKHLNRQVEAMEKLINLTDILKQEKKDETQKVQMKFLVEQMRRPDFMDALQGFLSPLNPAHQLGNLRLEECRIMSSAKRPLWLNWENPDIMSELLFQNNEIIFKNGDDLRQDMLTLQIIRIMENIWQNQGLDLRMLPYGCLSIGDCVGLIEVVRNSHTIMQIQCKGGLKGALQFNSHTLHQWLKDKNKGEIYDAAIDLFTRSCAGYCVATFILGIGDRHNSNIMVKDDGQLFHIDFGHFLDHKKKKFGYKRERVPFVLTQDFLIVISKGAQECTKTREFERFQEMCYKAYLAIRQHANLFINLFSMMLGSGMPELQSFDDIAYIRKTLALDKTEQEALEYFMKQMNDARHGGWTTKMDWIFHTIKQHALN
Chain of H1047R PIK3CA enzyme (P27986 whole entry partner): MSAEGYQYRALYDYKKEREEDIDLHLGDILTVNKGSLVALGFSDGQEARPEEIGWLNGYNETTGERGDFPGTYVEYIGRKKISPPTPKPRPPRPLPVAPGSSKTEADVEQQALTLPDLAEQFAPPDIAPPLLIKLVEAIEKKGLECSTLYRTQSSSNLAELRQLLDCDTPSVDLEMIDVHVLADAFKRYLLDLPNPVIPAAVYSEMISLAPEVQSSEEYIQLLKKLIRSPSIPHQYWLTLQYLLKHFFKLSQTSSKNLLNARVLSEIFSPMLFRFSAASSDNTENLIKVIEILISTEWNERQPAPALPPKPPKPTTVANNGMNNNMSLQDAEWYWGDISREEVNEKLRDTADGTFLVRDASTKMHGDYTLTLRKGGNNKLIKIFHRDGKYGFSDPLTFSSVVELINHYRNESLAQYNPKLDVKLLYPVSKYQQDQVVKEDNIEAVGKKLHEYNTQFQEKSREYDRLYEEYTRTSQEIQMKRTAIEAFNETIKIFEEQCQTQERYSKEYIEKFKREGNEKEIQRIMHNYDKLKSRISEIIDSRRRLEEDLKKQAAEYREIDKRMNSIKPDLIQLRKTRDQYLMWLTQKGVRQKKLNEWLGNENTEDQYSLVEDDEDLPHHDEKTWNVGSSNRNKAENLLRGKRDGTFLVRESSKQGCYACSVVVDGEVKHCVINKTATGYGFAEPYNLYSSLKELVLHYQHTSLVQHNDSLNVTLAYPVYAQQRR

IC50, 100 to 500 nM:
Cc1ccccc1-n1[nH]c(=O)c2cccc(NC(=O)c3coc4c(F)cc(Cl)cc34)c21 [Compound I-252]
Cc1ccccc1C1NC(=O)c2cc([C@@H](C)NC(=O)OC(C)(C)C)cc(NC(=O)c3csc4ccccc34)c21 (mixture of isomers) [Compound I-89]
CC(C)(O)c1cc(NC(=O)c2cc(F)cc(C(F)(F)F)c2)c2c(n1)C(=O)NC2c1cc(F)ccc1Cl (stereo not drawn) [Compound I-242]
O=C(Nc1cc(OC2CNC2)cc2c1C(c1cc(F)ccc1Cl)NC2=O)c1cc(F)cc(C(F)(F)F)c1 (stereo not drawn) [Compound I-1252]

IC50, ≤ 100 nM:
CCn1cc(-c2cc(NC(=O)c3cc(F)cc(C(F)(F)F)c3)c3c(c2)C(=O)N[C@H]3c2cc(F)ccc2Cl)ccc1=O [Compound I-704]
N#Cc1cc(NC(=O)c2cc(F)cc(C(F)(F)F)c2)c2c(c1)C(=O)NC2c1cc(F)ccc1C(F)F (stereo not drawn) [Compound I-237]
O=C(Nc1cc(Nc2ccccc2)cc2c1C(c1cc(F)ccc1Cl)NC2=O)c1cc(F)cc(C(F)(F)F)c1 (stereo not drawn) [Compound I-1213]
O=C(Nc1cc(Br)cc2c1C(c1ccccc1C(F)F)NC2=O)c1cc(F)cc(C(F)(F)F)c1 (stereo not drawn) [Compound I-792]
O=C1Cc2c(cccc2-c2cc(NC(=O)c3cc(F)cc(C(F)(F)F)c3)c3c(c2)C(=O)NC3c2cc(F)ccc2Cl)N1 (stereo not drawn) [Compound I-1034]
O=C(Nc1cccc2c1C(c1cc(F)ccc1Br)NC2=O)c1cc(F)cc(C(F)(F)F)c1 (stereo not drawn) [Compound I-628]
CS(=O)(=O)c1ccc(-c2cc(NC(=O)c3cc(F)cc(C(F)(F)F)c3)c3c(c2)C(=O)NC3c2cc(F)ccc2Cl)cn1 (stereo not drawn) [Compound I-1455]
O=C(Nc1cc(-c2ccc3ncnn3c2)cc2c1C(c1cc(F)ccc1Cl)NC2=O)c1cc(F)cc(C(F)(F)F)c1 (stereo not drawn) [Compound I-824]
O=C(Nc1cc(Br)cc2c1[C@H](c1cc(Cl)cc(F)c1F)NC2=O)c1cc(F)cc(C(F)(F)F)c1 [Compound I-786]
CN1CCN(c2cc(NC(=O)c3cc(F)cc(C(F)(F)F)c3)c3c(c2)C(=O)NC3c2cc(F)ccc2Cl)CC1 (stereo not drawn) [Compound I-304]
Cc1ccccc1C1NC(=O)c2c(CN)ccc(NC(=O)c3csc4ccccc34)c21 (stereo not drawn) [Compound I-140]
Cc1ccc(F)cc1[C@@H]1NC(=O)c2cc(Br)cc(NC(=O)c3cc(F)cc(C(F)(F)F)c3)c21 [Compound I-758]
O=C1NC(c2cc(F)ccc2Cl)c2c(N/C(=N\O)c3cc(F)cc(C(F)(F)F)c3)cccc21 (stereo not drawn) [Compound I-1100]
O=C(Nc1cc(OC2CCCOC2)cc2c1C(c1cc(F)ccc1Cl)NC2=O)c1cc(F)cc(C(F)(F)F)c1 (racemic) [Compound I-1239]
O=C(Nc1cc(-c2cccc3cccnc23)cc2c1C(c1cc(F)ccc1Cl)NC2=O)c1cc(F)cc(C(F)(F)F)c1 (stereo not drawn) [Compound I-1045]
O=C1NC(c2ccc(F)cc2Cl)c2c(NC(=O)c3csc4ccccc34)cccc21 (stereo not drawn) [Compound I-102]

IC50, 1000 to 10000 nM:
O=C1N[C@@H](c2cc(F)ccc2Cl)c2c(NC(=O)N3C[C@@](O)(C(F)(F)F)c4cc(F)ccc43)cc(N3CCOC3=O)cc21 (single isomer, unassigned) [Compound I-2675]
Cc1ccc(F)cc1[C@H]1NC(=O)c2cc(Br)cc(NC(=O)c3cc(F)cc(C(F)(F)F)c3)c21 [Compound I-757]
Cc1cc2cccc(C(=O)Nc3cc(Br)cc4c3C(c3cc(F)ccc3Cl)NC4=O)c2o1 (stereo not drawn) [Compound I-635]
O=C(Nc1cc(CS(=O)(=O)N2CCOCC2)cc2c1[C@@H](c1cc(F)ccc1Cl)NC2=O)c1cc(F)cc(C(F)(F)F)c1 [Compound I-1484]
N#CCc1cc(NC(=O)N2C[C@@](O)(C(F)(F)F)c3cc(F)ccc32)c2c(c1)C(=O)N[C@H]2c1cc(F)ccc1Cl (single isomer, unassigned) [Compound I-2624]
CCC1CCCN1C(=O)Nc1cccc2c1C(c1cc(F)ccc1Cl)NC2=O (mixture of isomers) [Compound I-2395]
Nc1cc(NC(=O)N2C[C@H](O)c3ccccc32)c2c(c1)C(=O)N[C@@H]2c1cc(F)ccc1Cl (single isomer, unassigned) [Compound I-2130]
O=C1N[C@@H](c2cc(F)ccc2Cl)c2c(NC(=O)N3C[C@@](O)(C(F)F)c4cc(F)ccc43)cc(Cl)cc21 (single isomer, unassigned) [Compound I-2588]
CC(C)(C#N)n1cc(-c2cc(NC(=O)N3C[C@@](O)(C(F)(F)F)c4cc(F)ccc43)c3c(c2)C(=O)N[C@H]3c2cc(F)ccc2Cl)cn1 (single isomer, unassigned) [Compound I-2612]
O=C(Nc1cccc2c1C(c1cc(O)ccc1Cl)NC2=O)c1cc(F)cc(C(F)(F)F)c1 (stereo not drawn) [Compound I-428]
O=C(Nc1ccccc1Cl)Nc1ccnc2c1C(c1ccccc1Cl)NC2=O (stereo not drawn) [Compound I-296]
O=C1NC(c2cc(F)ccc2Cl)c2c(NC3CNCc4ccccc43)cc(-c3ccc4ncnn4c3)cc21 (stereo not drawn) [Compound I-1959]
O=C1N[C@H](c2cc(F)ccc2Cl)c2c(NC(=O)N3C[C@@H](O)c4cc(F)ccc43)cc(-n3nccn3)cc21 (single isomer, unassigned) [Compound I-2344]
O=C(Nc1cc(-c2ccncc2F)cc2c1[C@H](c1cc(F)ccc1Cl)NC2=O)c1cc(F)cc(C(F)(F)F)c1 (stereo in doubt) [Compound I-987]

IC50, 10000 to 100000 nM:
CN1CCN(C(=O)Nc2cc(Br)cc3c2[C@H](c2cc(F)ccc2Cl)NC3=O)CC1 (single isomer, unassigned) [Compound I-2244]
O=C1NC(c2cc(F)ccc2Cl)c2c(Nc3noc4ccccc34)cc(Br)cc21 (stereo not drawn) [Compound I-1058]
COC(=O)C1CN(C(=O)Nc2cccc3c2C(c2cc(F)ccc2Cl)NC3=O)c2ccccc21 (stereo not drawn) [Compound I-2317]
O=C(Nc1cccc2c1C(C(=O)N1CCCCC1)NC2=O)c1cc(F)cc(C(F)(F)F)c1 (stereo not drawn) [Compound I-2041]
O=C1N[C@H](c2cc(F)ccc2Cl)c2c(NC(=O)N3C[C@@](O)(C(F)(F)F)c4ccccc43)cccc21 (single isomer, unassigned) [Compound I-2383]
O=C1N[C@H](c2cc(F)ccc2Cl)c2c(N[C@H]3CCCNC3)cc(-c3ccc4ncnn4c3)cc21 (racemic) [Compound I-2023]
O=C(Nc1cccc2c1C(c1cccc(B(O)O)c1)NC2=O)c1cc(F)cc(C(F)(F)F)c1 (stereo not drawn) [Compound I-717]

IC50, 500 to 1000 nM:
O=C1NC(c2cc(F)ccc2Cl)c2c(NC(=O)[C@H]3CCC[C@@H](C(F)(F)F)C3)cccc21 (stereo partly drawn) [Compound I-2079]
O=C1NC[C@@H](c2cc(NC(=O)c3cc(F)cc(C(F)(F)F)c3)c3c(c2)C(=O)N[C@@H]3c2cc(F)ccc2Cl)O1 (single isomer, unassigned) [Compound I-1560]
O=C(Nc1cc(-c2ccc3ncnn3c2)nc2c1C(C1CCCCC1)NC2=O)c1cc(F)cc(C(F)(F)F)c1 (stereo not drawn) [Compound I-1607]
Nc1nc(NC(=O)c2cc(F)cc(C(F)(F)F)c2)c2c(n1)C(=O)NC2c1ccccc1Cl (stereo not drawn) [Compound I-184]
